Experimental data taken from patent EP3360553B1, “MOLECULES AND PHARMACEUTICAL COMPOSITIONS, IN PARTICULAR FOR TREATING A GENETIC BLOOD DISORDER” (Université de La Réunion, priority 2017, dated 2018).

Legend:
laminin 521 [1] = assay: Red blood cell adhesion to laminin 521 under flow conditions; type: cell-based; conditions: RBCs from sickle cell disease patients incubated with molecule at 0.1 mM for 30 min at room temperature, recombinant human laminin 521, 3 blood samples
Protocol: (§1) In the figures: • Figure 1: Adhesion of RBCs from sickle cell disease patients (N = 3) to laminin 521. Results are presented as a percentage of adhesion, 100% of adhesion being the adhesion level observed for RBCs incubated with buffer supplemented with DMSO alone. • Figure 2: Adhesion of RBCs from sickle cell disease patients to laminin 521 in the presence of increasing concentrations of Molecule 2 and Molecule 3. Results are presented as a percentage of adhesion, 100% of adhesion being the adhesion level observed for RBCs incubated without the molecules.
Red blood cell adhesion to laminin 521 was measured under flow conditions using Vena8 Endothelial+™ biochips (internal channel dimensions: length 20 mm, width 0.8 mm, height 0.12 mm) and ExiGo™ Nanopumps (Cellix Ltd, Dublin, Ireland). Three different solutions were prepared with either Molecule 1, Molecule 2 or Molecule 3 (0.1 mM) by solubilizing Molecule 1, 2 or 3 using DMSO. Recombinant human laminin 521 (BioLamina) at 5 ng/µl was immobilized on the internal surface of the biochips at 4°C overnight. RBCs from sickle cell disease patients were suspended at 5x10^7 cells/ml in Hanks balanced salt solution, without calcium chloride and magnesium sulfate (Sigma-Aldrich) supplemented with 0.4% BSA, and incubated with the solution comprising either Molecule 1, Molecule 2 or Molecule 3 at 0.1 mM or DMSO, for 30 min at room temperature (20°C) and perfused through the biochip channels for 10 min at a shear stress of 0.5 dyn/cm^2 followed by a washout at the same shear stress with the buffer alone for 30 min. Five minutes washouts with the Hanks/0.4% BSA buffer were performed at 1, 2, 3, 4 and 5 dyn/cm^2. After each wash, adherent RBCs were counted in 7 representative areas along the centerline of each channel using the AxioObserver Z1 microscope and ZEN analysis software (Carl Zeiss, Le Pecq, France) and the mean number of adherent RBCs was determined for each condition and each washout step (Figure 1). Images of the same 7 areas were obtained throughout each experiment. […]

RBCs = assay: Control of hemolysis (RBC concentration by CASY Cell Counter and Analyzer); type: cell-based; conditions: 0.1 mM, 30 min incubation at room temperature; for RBCs/ml (x10^6): Hanks/0.4% BSA buffer, RBCs suspended at 6x10^6 cells/ml; for decrease of RBC concentration compared to vehicle (DMSO) alone: result in words
Protocol: (§2) At the end of the 30 min of incubation with the molecules, the number of RBC for the control of hemolysis was measure by using CASY® Cell Counter and Analyzer.
(§3) For hemolysis assays, RBCs were suspended at 6x10^6 cells/ml in the Hanks/0.4% BSA buffer and the concentration measured accurately using the CASY® Cell Counter and Analyzer. RBCs were then incubated with the solution comprising either Molecule 1, Molecule 2 or Molecule 3 at 0.1 mM or DMSO, for 30 min at room temperature. After this incubation time cell concentration was measured again using CASY® Cell Counter and Analyzer (Table 1). If hemolysis occurs during this incubation time it will be reflected by a decrease in the RBC concentration.

[2] = as above; type: cell-based; conditions: red blood cells; 0.1 mM, 30 min incubation at room temperature; compared to vehicle (DMSO); read-out: decrease of the RBC concentration
Protocol: as §2, §3

laminin 521 [3] = assay: Dose effect in the RBC adhesion assay to laminin 521; type: cell-based, human; conditions: 50, 100 and 200 µM; RBCs from sickle cell disease patients; same conditions as Example 1
Protocol: as §1
Red blood cell adhesion to laminin 521 was measured under flow conditions using Vena8 Endothelial+™ biochips (internal channel dimensions: length 20 mm, width 0.8 mm, height 0.12 mm) and ExiGo™ Nanopumps (Cellix Ltd, Dublin, Ireland). Three different solutions were prepared with either Molecule 1, Molecule 2 or Molecule 3 (0.1 mM) by solubilizing Molecule 1, 2 or 3 using DMSO. Recombinant human laminin 521 (BioLamina) at 5 ng/µl was immobilized on the internal surface of the biochips at 4°C overnight. […] After each wash, adherent RBCs were counted in 7 representative areas along the centerline of each channel using the AxioObserver Z1 microscope and ZEN analysis software (Carl Zeiss, Le Pecq, France) and the mean number of adherent RBCs was determined for each condition and each washout step (Figure 1). […]

SMILES: CCC(=O)N1CCc2ccc(OCc3nc(C(=O)NCc4ccccc4)co3)cc2C1c1ccc(C)cc1 (centres unmarked) [Molecule 1]
- RBC adhesion to laminin (laminin 521 [1]): not
- RBCs/ml (x10^6) (RBCs): 6.04 x10^6 RBCs/ml
- decrease of RBC concentration compared to vehicle (DMSO) alone (RBCs): no decrease

SMILES: Cc1c(CC(=O)NC(C(=O)O)c2ccccc2)c(=O)oc2c(C)c3oc4c(c3cc12)CCCC4 (centres unmarked) [Molecule 2]
- RBC adhesion to laminin (laminin 521 [1]): inhibited
- hemolysis at 0.5 h, 100 µM [2]: < 10%
- RBCs/ml (x10^6) (RBCs): 5.55 x10^6 RBCs/ml
- inhibition of RBC adhesion to laminin with increasing concentrations (laminin 521 [3]): increasing inhibition

SMILES: O=S(=O)(O)CCCn1c(=NN=Cc2c(O)ccc3ccccc23)sc2ccccc21 [Molecule 3]
- RBC adhesion to laminin (laminin 521 [1]): inhibited
- RBCs/ml (x10^6) (RBCs): 6.02 x10^6 RBCs/ml
- decrease of RBC concentration compared to vehicle (DMSO) alone (RBCs): no decrease
- inhibition of RBC adhesion to laminin with increasing concentrations (laminin 521 [3]): increasing inhibition
